Test results from PubChem BioAssay (NCI).
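Grown in 96-well plates, cells were treated for 48 hours with each compound at five concentrations. Insufficient inhibition: endpoint recorded as highest concentration tested. Abbreviation: GI50, concentration required for 50% inhibition of growth. The concentration for full growth arrest is given as TGI.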

Tests used:
Assay in all cases: NCI anticancer screen, dose series, 48 h
[1] = tested on: UACC-62 melanoma
[2] = tested on: MOLT-4 leukemia
[3] = tested on: 786-0 renal
[4] = tested on: OVCAR-4 ovarian
[5] = tested on: T-47D breast
[6] = tested on: SNB-19 CNS
[7] = tested on: MDA-MB-231 breast
[8] = tested on: HOP-62 NSCLC
[9] = tested on: HCC-2998 colon
[10] = tested on: SR leukemia

| Compound | GI50 [1] [µM] | TGI [1] [µM] | GI50 [2] [µM] | TGI [2] [µM] | GI50 [3] [µM] | TGI [3] [µM] | GI50 [4] [µM] | TGI [4] [µM] | GI50 [5] [µM] | TGI [5] [µM] | GI50 [6] [µM] | TGI [6] [µM] | GI50 [7] [µM] | TGI [7] [µM] | GI50 [8] [µM] | TGI [8] [µM] | GI50 [9] [µM] | TGI [9] [µM] | TGI [10] [µM] | GI50 [10] [µM] |
| --- | --- | --- | --- | --- | --- | --- | --- | --- | --- | --- | --- | --- | --- | --- | --- | --- | --- | --- | --- | --- |
| O=C(CC1(O)C(=O)Nc2ccc(Cl)cc21)c1ccc(C(=O)NCC2CCC3(CC2)OOC2(CCCCC2)OO3)cc1 (stereo unspecified) | 5.05 | 27.6 | 2.05 | 5.09 | 0.535 | 1.86 | 2.54 | 18.3 | 1.57 | 5.37 | 4.19 | 23.6 | 2.68 | 7.72 | 0.445 | 2 | 4.27 | 21.4 | – | – |
| CCN(CC)C(=O)Cc1[nH][nH]c(=O)c1C(=O)N(CC)CC | – | > 100 | – | > 100 | – | > 100 | – | > 100 | – | – | – | > 100 | – | – | – | > 100 | – | > 100 | > 100 | – |
| CCN(CC)c1ccc(N=Nc2ccc(-c3nc4cccnc4s3)cc2)cc1 | – | > 100 | – | > 100 | – | > 100 | – | > 100 | – | – | – | > 100 | – | – | – | > 100 | – | > 100 | > 100 | – |
| COc1ccc([C@@H]2[C@@H](Cl)C(=O)N2c2cc(OC)c(OC)c(OC)c2)cc1C | 0.0607 | 41.1 | 0.181 | > 100 | 0.0643 | 21.6 | 0.769 | > 100 | – | – | 0.0535 | > 100 | 0.163 | 42.1 | 0.0535 | > 100 | 0.347 | 58.4 | 54.4 | 0.0397 |
| O=C(CC(C(=O)c1ccsc1)c1cccs1)c1cccs1 (stereo unspecified) | – | > 100 | – | > 100 | – | > 100 | – | > 100 | – | – | – | > 100 | – | – | – | > 100 | – | > 100 | > 100 | – |
| COc1ccccc1NC(=O)c1sc2ncn(CCOc3ccccc3)c(=O)c2c1C | 2.04 | > 50 | – | – | > 50 | > 50 | – | – | > 50 | > 50 | > 50 | > 50 | 2.61 | > 50 | 15.6 | > 50 | – | – | 6.87 | 0.856 |
| N#Cc1c(N)oc2cc3c(C#N)c(N)oc3cc12 | – | > 100 | – | > 100 | – | > 100 | – | > 100 | – | – | – | > 100 | – | – | – | > 100 | – | > 100 | – | – |
| CC(C)(c1ccc(C=O)o1)c1ccc(C(C)(C)c2ccc(C=O)o2)o1 | – | – | – | > 100 | – | > 100 | – | > 100 | – | – | – | > 100 | – | – | – | > 100 | – | > 100 | > 100 | – |
| CCOC(=O)C1=C(C)N(NC(=O)Nc2ccccc2)C2(N)N(NC(=O)Nc3ccccc3)C(C)=C(C(=O)OCC)C12C#N (stereo unspecified) | – | 32.2 | – | 56.8 | – | 32.4 | – | 31.5 | – | – | – | – | – | – | – | – | – | 33.9 | – | – |
| C=C(CN1CCN(c2cc(C(F)(F)F)cc(C(F)(F)F)c2)CC1)c1ccc(C(=O)Nc2ccccc2N)cc1 | 4.21 | > 100 | – | – | 6.77 | 86.5 | 2.53 | 9.9 | 8.97 | > 100 | 14 | > 100 | 1.06 | 17.9 | 16.2 | > 100 | 4.28 | 26.4 | – | – |
| CC(=O)O[C@H]1CSC[C@@H](OC(C)=O)C1[N+](=O)[O-] (stereo partly specified) | – | > 100 | – | 78.7 | – | 36.5 | – | > 100 | – | – | – | > 100 | – | – | – | > 100 | – | > 100 | – | – |
| CO[C@H]1C[C@H](O[C@H]2CC[C@@]3(C)[C@H](CC[C@@H]4[C@@H]3CC[C@]3(C)[C@@H](C5=CC(=O)OC5)CC[C@]43O)C2)O[C@H](C)[C@H]1O | – | 0.031 | – | – | – | < 0.0129 | – | < 0.0131 | – | – | – | 0.143 | – | 0.412 | – | 0.0202 | – | 0.118 | – | – |
| C(=C\c1ccc2ccccc2c1Nc1ccccc1)/c1ccccc1 | – | > 100 | – | 36.9 | – | 33.9 | – | 23.2 | – | – | – | > 90.5 | – | – | – | 62.5 | – | > 100 | 33.6 | – |
| NC1(C(=O)O)CCC(C(=O)O)CC1 (stereo unspecified) | – | > 100 | – | > 100 | – | > 100 | – | > 100 | – | – | – | > 100 | – | – | – | > 100 | – | > 100 | > 100 | – |
| Nc1ncc(CN2CCCC2)c(-c2ccccc2O)n1 | – | > 750 | – | > 750 | – | > 750 | – | > 750 | – | – | – | > 750 | – | – | – | > 750 | – | > 750 | > 750 | – |
| COC1=CC(=O)[C@@]2(C)C(C)[C@H](c3ccccc3)[C@H]2C1=O (stereo partly specified) | – | > 100 | – | > 100 | – | > 100 | – | > 100 | – | – | – | > 100 | – | – | – | > 100 | – | > 100 | > 100 | – |
| O=C(NCCN1CCOCC1)c1cc2c(Oc3ccc(NC(=O)C4(C(=O)Nc5ccc(F)cc5)CC4)cc3)ccnc2[nH]1 | 4.26 | 22.7 | 3.48 | > 100 | 6.74 | 45.6 | 5.13 | > 100 | 4.43 | 46 | 14.2 | > 100 | 8.4 | 30.7 | 3.22 | 31.5 | 15.3 | 51.9 | – | – |
| OC[C@H]1C[C@](O)(c2ccccc2Cl)[C@@H](c2ccccc2Cl)O1 | 16.5 | 33.6 | 17.1 | 51.4 | 26.1 | 68.5 | 24.3 | 99.2 | – | – | 31.7 | > 100 | 18.6 | 47.6 | 31.7 | > 100 | 29.5 | 79.4 | 41.3 | 16.9 |
